In patent US9730934B2, “Quinazoline derivatives substituted by aniline, preparation method and use thereof” (XUANZHU PHARMA CO., LTD., priority 2010, dated 2017) one finds IC50 data, which are given here for seven molecules.

Structures are written as SMILES. Counter-ions that a name gives are not always drawn.

One may read the IC50 as the point on the concentration scale where inhibition reaches its midpoint.

What all share (assay): In vitro enzyme inhibitory activity (Caliper mobility shift, FAM labeled peptide)
Type in all cases: biochemical
Common to all, as to settings: 28° C., 1 h reaction

The target of one experiment is HER4 (Homo sapiens (Human), UniProt Q15303). Here is the method:
(§1) In Vitro Enzyme Inhibitory Activity of the Present Compounds
HER4: human epidermal growth factor receptor 4 (Carna).
(§2) 1. Formulating the agents to be used in the assay
(§3) (6) 5-fold compound solutions (using 100% DMSO to formulate 50-fold compound solutions having different concentration gradients, and diluting with water by 10 times to obtain 5-fold compound solutions having different concentration gradients);
(§4) 2. Adding 5 μL of a 5-fold compound solution to a 384-well plate;
(§5) 3. Adding 10 μL of a 2.5-fold kinase solution to incubate for 10 min;
(§6) 4. Then adding 10 μL of a 2.5-fold peptide solution, and reacting at 28° C. for 1 h; and
(§7) 5. Finally, adding 25 μL of stop buffer to terminate the reaction, and reading the data with Caliper.
(§8) 6. Curve fitting to obtain an IC50 value. The calculated inhibition ratio (%)=(the maximum conversion rate−the conversion rate)/(the maximum conversion rate−the minimum conversion rate)×100
(§9) The curve fitting was conducted with the Xlfit software to obtain IC50 values.

Another experiment addresses HER2 (Homo sapiens (Human), UniProt P04626). Here is the method:
as §1
HER2: human epidermal growth factor receptor 2 (Carna);
as §2, §3, §4, §5, §6, §7, §8, §9

The target of the next experiment is EGFR (Homo sapiens (Human), UniProt P00533). Here is the method: as §1
Chain of EGFR (P00533 25-1210): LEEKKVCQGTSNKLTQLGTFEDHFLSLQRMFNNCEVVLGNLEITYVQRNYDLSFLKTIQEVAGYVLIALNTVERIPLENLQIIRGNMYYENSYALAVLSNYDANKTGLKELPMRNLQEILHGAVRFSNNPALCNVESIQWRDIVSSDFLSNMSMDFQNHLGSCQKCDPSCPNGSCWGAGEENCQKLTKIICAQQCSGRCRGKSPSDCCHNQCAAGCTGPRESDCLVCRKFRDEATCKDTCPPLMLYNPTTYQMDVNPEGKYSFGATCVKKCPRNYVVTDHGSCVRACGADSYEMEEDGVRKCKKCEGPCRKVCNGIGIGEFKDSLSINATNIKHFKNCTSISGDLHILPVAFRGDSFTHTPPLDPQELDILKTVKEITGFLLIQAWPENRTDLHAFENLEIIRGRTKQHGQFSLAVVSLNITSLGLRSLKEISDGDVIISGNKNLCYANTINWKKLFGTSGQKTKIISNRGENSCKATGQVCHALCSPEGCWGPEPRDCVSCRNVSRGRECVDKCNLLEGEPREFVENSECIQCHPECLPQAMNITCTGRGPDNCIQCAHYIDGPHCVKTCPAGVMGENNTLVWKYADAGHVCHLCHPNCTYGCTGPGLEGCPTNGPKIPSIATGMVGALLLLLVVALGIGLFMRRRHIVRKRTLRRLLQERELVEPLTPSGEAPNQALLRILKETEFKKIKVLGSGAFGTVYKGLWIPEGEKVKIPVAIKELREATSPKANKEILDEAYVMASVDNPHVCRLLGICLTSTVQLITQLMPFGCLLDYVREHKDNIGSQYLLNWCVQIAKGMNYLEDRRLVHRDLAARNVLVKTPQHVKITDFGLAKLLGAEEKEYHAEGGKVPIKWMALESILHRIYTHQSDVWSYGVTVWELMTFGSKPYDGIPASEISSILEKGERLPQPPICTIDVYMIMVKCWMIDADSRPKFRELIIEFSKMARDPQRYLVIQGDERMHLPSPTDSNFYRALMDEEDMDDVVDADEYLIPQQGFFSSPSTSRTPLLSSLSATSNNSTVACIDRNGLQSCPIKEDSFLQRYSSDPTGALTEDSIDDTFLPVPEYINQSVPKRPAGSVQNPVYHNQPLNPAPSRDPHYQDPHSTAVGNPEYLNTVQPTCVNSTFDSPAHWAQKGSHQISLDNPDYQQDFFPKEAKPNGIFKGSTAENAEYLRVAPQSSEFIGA
EGFR: human epidermal growth factor receptor (Carna);
as §2, §3, §4, §5, §6, §7, §8, §9

Chain of HER2 (P04626 23-1255): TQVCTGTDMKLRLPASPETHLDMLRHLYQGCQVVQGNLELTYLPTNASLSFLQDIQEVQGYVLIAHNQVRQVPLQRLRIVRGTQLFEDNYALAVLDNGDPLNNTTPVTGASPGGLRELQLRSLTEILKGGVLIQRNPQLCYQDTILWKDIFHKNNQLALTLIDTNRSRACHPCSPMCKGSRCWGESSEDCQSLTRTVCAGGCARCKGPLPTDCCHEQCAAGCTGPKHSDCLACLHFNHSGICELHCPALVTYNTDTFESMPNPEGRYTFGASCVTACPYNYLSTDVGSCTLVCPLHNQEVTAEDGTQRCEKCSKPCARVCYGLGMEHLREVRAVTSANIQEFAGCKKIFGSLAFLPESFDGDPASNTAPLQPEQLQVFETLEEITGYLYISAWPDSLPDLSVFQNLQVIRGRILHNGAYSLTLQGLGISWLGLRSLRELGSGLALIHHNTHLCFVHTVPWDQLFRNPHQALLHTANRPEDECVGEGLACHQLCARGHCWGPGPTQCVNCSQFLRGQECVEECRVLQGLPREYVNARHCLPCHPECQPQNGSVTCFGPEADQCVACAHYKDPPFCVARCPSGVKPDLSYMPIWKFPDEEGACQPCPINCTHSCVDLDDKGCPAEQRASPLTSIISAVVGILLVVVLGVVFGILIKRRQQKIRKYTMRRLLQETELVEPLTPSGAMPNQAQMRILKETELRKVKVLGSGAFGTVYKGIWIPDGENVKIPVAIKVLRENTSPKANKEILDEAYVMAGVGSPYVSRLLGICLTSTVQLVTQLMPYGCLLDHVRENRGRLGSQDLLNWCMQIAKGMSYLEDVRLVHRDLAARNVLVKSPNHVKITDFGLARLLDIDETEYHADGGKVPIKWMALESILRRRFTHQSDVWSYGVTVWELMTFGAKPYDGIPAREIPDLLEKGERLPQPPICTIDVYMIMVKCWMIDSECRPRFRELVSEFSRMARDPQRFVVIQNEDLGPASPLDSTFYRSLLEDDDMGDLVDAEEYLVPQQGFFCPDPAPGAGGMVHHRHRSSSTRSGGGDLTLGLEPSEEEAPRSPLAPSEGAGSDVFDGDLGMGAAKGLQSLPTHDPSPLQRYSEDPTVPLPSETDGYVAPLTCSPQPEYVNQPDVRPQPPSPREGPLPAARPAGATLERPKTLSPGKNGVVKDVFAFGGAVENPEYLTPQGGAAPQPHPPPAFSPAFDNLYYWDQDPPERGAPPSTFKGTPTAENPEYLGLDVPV
Chain of HER4 (Q15303 26-1308): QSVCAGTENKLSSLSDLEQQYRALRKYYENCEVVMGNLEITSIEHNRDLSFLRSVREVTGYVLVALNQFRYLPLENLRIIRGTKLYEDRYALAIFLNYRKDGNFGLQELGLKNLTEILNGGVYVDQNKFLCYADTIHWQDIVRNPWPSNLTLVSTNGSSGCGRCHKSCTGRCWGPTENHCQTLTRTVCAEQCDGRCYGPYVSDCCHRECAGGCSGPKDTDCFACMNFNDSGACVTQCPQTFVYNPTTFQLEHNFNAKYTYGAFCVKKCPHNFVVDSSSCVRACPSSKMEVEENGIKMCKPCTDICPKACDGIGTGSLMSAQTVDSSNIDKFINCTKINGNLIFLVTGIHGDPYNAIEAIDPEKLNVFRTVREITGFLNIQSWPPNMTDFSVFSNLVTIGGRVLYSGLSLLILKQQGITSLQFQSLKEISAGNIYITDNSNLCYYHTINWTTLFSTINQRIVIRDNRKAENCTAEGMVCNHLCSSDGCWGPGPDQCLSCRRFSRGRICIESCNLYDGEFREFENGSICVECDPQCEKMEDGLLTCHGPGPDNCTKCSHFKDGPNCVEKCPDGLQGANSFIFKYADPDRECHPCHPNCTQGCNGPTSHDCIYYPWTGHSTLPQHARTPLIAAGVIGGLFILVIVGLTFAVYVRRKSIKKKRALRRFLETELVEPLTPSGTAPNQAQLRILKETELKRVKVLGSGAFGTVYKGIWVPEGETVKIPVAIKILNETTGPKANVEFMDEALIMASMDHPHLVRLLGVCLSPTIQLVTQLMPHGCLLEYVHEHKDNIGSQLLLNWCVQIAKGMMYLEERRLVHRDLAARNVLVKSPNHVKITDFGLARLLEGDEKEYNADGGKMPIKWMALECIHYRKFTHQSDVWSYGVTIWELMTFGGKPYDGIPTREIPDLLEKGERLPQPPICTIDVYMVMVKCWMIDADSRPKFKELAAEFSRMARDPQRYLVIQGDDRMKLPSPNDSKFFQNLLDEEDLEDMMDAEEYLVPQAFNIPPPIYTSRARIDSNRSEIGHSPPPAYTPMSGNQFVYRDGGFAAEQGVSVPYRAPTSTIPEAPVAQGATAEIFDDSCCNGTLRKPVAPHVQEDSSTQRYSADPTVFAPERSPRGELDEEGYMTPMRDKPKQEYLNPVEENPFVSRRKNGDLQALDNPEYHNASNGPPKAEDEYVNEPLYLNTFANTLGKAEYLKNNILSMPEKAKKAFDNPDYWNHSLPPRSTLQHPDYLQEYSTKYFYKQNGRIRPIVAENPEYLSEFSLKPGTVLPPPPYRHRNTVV

As to `C=CC(=O)Nc1cc2c(Nc3ccc(F)c(Cl)c3)ncnc2cc1OCCC1CC2(CCN(C)CC2)C1` [Compound 19 hydrochloride, N-[4-(3-chloro-4-fluorophenylamino)-7-(2-(7-methyl-7-azaspiro[3.5]nonan-2-yl)ethoxy)quinazolin-6-yl]-acrylamide hydrochloride], the IC50 at HER4 was 3.7 nM; on HER2 it was 3.1 nM; on EGFR, 0.56 nM.
Consider `C=CC(=O)Nc1cc2c(Nc3ccc(F)c(Cl)c3)ncnc2cc1OCC1CCC2(CCN(C)CC2)O1` (stereo not shown) [Compound 7, N-[4-(3-chloro-4-fluorophenylamino)-7-(8-methyl-1-oxa-8-azaspiro[4.5]decan-2-ylmethoxy)quinazolin-6-yl]-acrylamide], for which the IC50 at HER4 worked out at 1.7 nM; on HER2 it was 4.3 nM.
`C=CC(=O)Nc1cc2c(Nc3ccc(F)c(Cl)c3)ncnc2cc1OCCC1CC12CCN(C)CC2` (stereo not shown) [Compound 14, N-[4-(3-chloro-4-fluorophenylamino)-7-(2-(6-methyl-6-azaspiro[2.5]octan-1-yl)ethoxy)quinazolin-6-yl]-acrylamide]: the IC50 at HER4 stood at 1.2 nM; on HER2 it was 2.6 nM; at EGFR, 0.39 nM.
`C=CC(=O)Nc1cc2c(Nc3ccc(F)c(Cl)c3)ncnc2cc1OCC1COC2(CCN(C)CC2)C1` (stereo not shown) [Compound 6, N-[4-(3-chloro-4-fluorophenylamino)-7-((8-methyl-1-oxa-8-azaspiro[4.5]decan-3-yl)methoxy)quinazolin-6-yl]-acrylamide]: the IC50 worked out at 1.4 nM on HER4, 7.1 nM on HER2 and 1 nM on EGFR.
As to `C=CC(=O)Nc1cc2c(Nc3ccc(F)c(Cl)c3)ncnc2cc1OCC[C@@H]1[C@H]2CN(C)C[C@@H]12` [Compound 8], the IC50 came out at 3.4 nM at HER4 and 6.5 nM at HER2.
With `C=CC(=O)Nc1cc2c(Nc3ccc(F)c(Cl)c3)ncnc2cc1OCC1CC2(CCN(C)CC2)C1` [Compound 18, N-[4-(3-chloro-4-fluorophenylamino)-7-((7-methyl-7-azaspiro[3.5]nonan-2-yl)methoxy)quinazolin-6-yl]-acrylamide], the concentration for half-maximal inhibition (IC50) at HER4 is 1.9 nM; on HER2, 6.5 nM; at EGFR, 1 nM.
Take `C=CC(=O)Nc1cc2c(Nc3ccc(F)c(Cl)c3)ncnc2cc1OCCC1C2CCC1CN(C)C2` (stereo not shown) [Compound 11, N-[4-(3-chloro-4-fluorophenylamino)-7-(2-(3-methyl-3-azabicyclo[3.2.1]octan-8-yl)ethoxy)quinazolin-6-yl]-acrylamide]: the IC50 at HER4 stood at 8.3 nM; at HER2, 12 nM; on EGFR, 0.8 nM.
